# Activity calls are given as the source filed them. No cut-off for these calls is given here.
# Tested on: Phytophthora capsici
# Experiment: Antifungal activity against Phytophthora capsici assessed as fungal growth inhibition at 0.3 to 0.5 mM after 0.5 to 4.5 days
# Format: functional, organism-based
row,Structure (SMILES),growth inhibition (GI)
1,CCCCCCC(O)C(O)/C=C/C(O)CCCCCCC(=O)O (configuration not stated),Active
2,CCCCCCC(O)C(O)/C=C/C(O)CCCCCCC(=O)OCC(O)CO (configuration not stated),Active
